Assay results published in patent US11046680B1, “Heteroaryl-substituted triazoles as APJ receptor agonists” (priority 2016, dated 2021).

Biological target: human APJ receptor (Homo sapiens (Human), UniProt P35414)
Assay: biochemical
Format: biochemical
Conditions: [35S]GTPγS binding, CHO membranes expressing human APJ receptor; read-out: Activity hAPJ SPA EC50 IP
Procedure: The human APJ receptor was cloned by polymerase chain reaction and the gene encoding the receptor was subcloned in pFLAG-CMV™-3 expression vector (Sigma, Saint Louis, Mo. USA) in-house at Amgen. A GTPγS binding assay was performed on membranes prepared from CHO cells stably expressing human APJ receptor. The optimum experimental conditions for the concentrations of GDP, MgCl2, and NaCl in the assay buffer were initially determined. […] Incubation was at RT for 90 min and the microplate was read using a ViewLux™ ultra HTS Microplate Imager (PerkinElmer, Inc.).

human APJ receptor, sequence (P35414 whole entry): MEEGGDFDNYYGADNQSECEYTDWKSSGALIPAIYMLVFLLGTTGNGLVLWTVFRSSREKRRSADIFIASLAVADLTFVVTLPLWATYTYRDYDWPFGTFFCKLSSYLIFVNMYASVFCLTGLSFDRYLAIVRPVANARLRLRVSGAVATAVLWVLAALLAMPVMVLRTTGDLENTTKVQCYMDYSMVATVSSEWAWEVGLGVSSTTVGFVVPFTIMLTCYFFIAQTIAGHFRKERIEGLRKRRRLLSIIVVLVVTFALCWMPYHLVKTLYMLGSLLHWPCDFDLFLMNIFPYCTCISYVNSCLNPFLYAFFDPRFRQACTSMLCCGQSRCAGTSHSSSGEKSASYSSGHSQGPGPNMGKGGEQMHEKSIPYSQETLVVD

| Compound | EC50 [nM] |
| --- | --- |
| COc1cccc(OC)c1-n1c(NS(=O)(=O)C[C@H](OC)c2ccc(Cl)cn2)nnc1-c1ccn(C)n1 (single isomer, unassigned) [Example 377.0, (R)-2-(5-Chloropyridin-2-yl)-N-(4-(2,6-dimethoxyphenyl)-5-(1-methyl-1H-pyrazol-3-yl)-4H-1,2,4-triazol-3-yl)-2-methoxyethanesulfonamide or (S)-2-(5-chloropyridin-2-yl)-N-(4-(2,6-dimethoxyphenyl)-5-(1-methyl-1H-pyrazol-3-yl)-4H-1,2,4-triazol-3-yl)-2-methoxyethanesulfonamide] | 0.6 |
| COc1cccc(OC)c1-n1c(NS(=O)(=O)[C@@H](C)[C@H](OC)c2ncc(C)cn2)nnc1-c1ccc(C)s1 [Example 332.0, (1R,2S)-N-(4-(2,6-dimethoxyphenyl)-5-(5-methyl-2-thiophenyl)-4H-1,2,4-triazol-3-yl)-1-methoxy-1-(5-methyl-2-pyrimidinyl)-2-propanesulfonamide] | 0.37 |
| CNC(=O)n1ccc(-c2nnc(NS(=O)(=O)[C@@H](C)Cc3ncc(F)cn3)n2-c2c(OC)cccc2OC)n1 (single isomer, unassigned) [Example 74.0] | 22 |
| COc1cccc(OC)c1-n1c(NS(=O)(=O)CCc2ccc(Cl)cc2)nnc1-c1ccsc1 [Example 141.0, 2-(4-chlorophenyl)-N-(4-(2,6-dimethoxyphenyl)-5-(thiophen-3-yl)-4H-1,2,4-triazol-3-yl)ethanesulfonamide] | 9.4 |
| (1R,2S)-N-(4-(2,6-dimethoxyphenyl)-5-(1H-pyrro1o[2,3-b]pyridin-3-yl)-4H-1,2,4-triazol-3-yl)-1-methoxy-1-(5-methylpyrimidin-2-yl)propane-2-sulfonamide [Example 413.0] | 30 |
| (2R,3S)-N-(4-(2,6-dimethoxyphenyl)-5-(1-methyl-1H-pyrazol-3-yl)-4H-1,2,4-triazol-3-yl)-3-(5-methyl-2-pyrazinyl)-2-butanesulfonamide and (2S,3R)-N-(4-(2,6-dimethoxyphenyl)-5-(1-methyl-1H-pyrazol-3-yl)-4H-1,2,4-triazol-3-yl)-3-(5-methyl-2-pyrazinyl)-2-butanesulfonamide [Example 279.0] | 2.8 |
| COc1cccc(OC)c1-n1c(NS(=O)(=O)CCc2ccc(Cl)cc2)nnc1-c1ncc(Cl)s1 [Example 144.0, 2-(4-chlorophenyl)-N-(5-(5-chlorothiazol-2-yl)-4-(2,6-dimethoxyphenyl)-4H-1,2,4-triazol-3-yl)ethanesulfonamide] | 330 |
| CO[C@H](c1ncc(C)cn1)[C@H](C)S(=O)(=O)Nc1nnc(-c2ccn(C)n2)n1-c1c(F)cccc1F [Example 233.0, (1R,2S)-N-(4-(2,6-difluorophenyl)-5-(1-methyl-1H-pyrazol-3-yl)-4H-1,2,4-triazol-3-yl)-1-methoxy-1-(5-methyl-2-pyrimidinyl)-2-propanesulfonamide] | 17 |
| COc1cccc(OC)c1-n1c(NS(=O)(=O)[C@@H](C)[C@H](OC)c2ncc(C)cn2)nnc1-c1ccnc2ccccc12 [Example 417.0] | 510 |
| O=S(=O)(CCc1ccc(Cl)cc1)Nc1nnc(-c2cccs2)n1-c1ccccc1OC(F)F [Example 240.0, 2-(4-chlorophenyl)-N-(4-(2-(difluoromethoxy)phenyl)-5-(thiophen-2-yl)-4H-1,2,4-triazol-3-yl)ethanesulfonamide] | 1310 |
| COc1cccc(OC)c1-n1c(NS(=O)(=O)[C@@H](C)[C@@H](OC(C)C)c2ncc(C)cn2)nnc1-c1noc(C)c1C [Example 517.0, (1S,2S)-N-(4-(2,6-dimethoxyphenyl)-5-(4,5-dimethylisoxazol-3-yl)-4H-1,2,4-triazol-3-yl)-1-isopropoxy-1-(5-methylpyrimidin-2-yl)propane-2-sulfonamide] | 3 |
| COc1cccc(OC)c1-n1c(NS(=O)(=O)[C@@H](C)[C@H](OC)c2ncc(C)cn2)nnc1-c1cnn2ccc(C)cc12 [Example 416.0, (1R,2S)-N-(4-(2,6-dimethoxyphenyl)-5-(5-methylpyrazolo[1,5-a]pyridin-3-yl)-4H-1,2,4-triazol-3-yl)-1-methoxy-1-(5-methylpyrimidin-2-yl)propane-2-sulfonamide] | 8.4 |
| COc1cccc(OC)c1-n1c(NS(=O)(=O)CCc2ccc(Cl)cc2)nnc1-c1cccs1 [Example 311.0, 2-(4-Chlorophenyl)-N-(4-(2,6-dimethoxyphenyl)-5-(thiophen-2-yl)-4H-1,2,4-triazol-3-yl)ethanesulfonamide] | 3.8 |
| Cn1ccc(-c2nnc(NS(=O)(=O)[C@@H]3C[C@@H](O)CN(c4ncc(F)cn4)C3)n2-c2c(F)cccc2F)n1 (single isomer, unassigned) [Example 300.0, (3R,5R)-N-(4-(2,6-difluorophenyl)-5-(1-methyl-1H-pyrazol-3-yl)-4H-1,2,4-triazol-3-yl)-1-(5-fluoro-2-pyrimidinyl)-5-hydroxy-3-piperidinesulfonamide or (3S,5R)-N-(4-(2,6-difluorophenyl)-5-(1-methyl-1H-pyrazol-3-yl)-4H-1,2,4-triazol-3-yl)-1-(5-fluoro-2-pyrimidinyl)-5-hydroxy-3-piperidinesulfonamide] | 55 |
| COc1cccc(OC)c1-n1c(NS(=O)(=O)[C@@H](C)[C@H](OC)c2ncc(C)cn2)nnc1-c1nccs1 [Example 341.0, (1R,2S)-N-(4-(2,6-dimethoxyphenyl)-5-(1,3-thiazol-2-yl)-4H-1,2,4-triazol-3-yl)-1-methoxy-1-(5-methyl-2-pyrimidinyl)-2-propanesulfonamide] | 0.73 |
| COc1cnc([C@@H](C)[C@H](C)S(=O)(=O)Nc2nnc(-c3cnn4c3CCC4)n2-c2c(OC)cccc2OC)cn1 [Example 486.0, (2S,3R)-N-(5-(5,6-dihydro-4H-pyrrolo[1,2-b]pyrazo1-3-yl)-4-(2,6-dimethoxyphenyl)-4H-1,2,4-triazol-3-yl)-3-(5-methoxypyrazin-2-yl)butane-2-sulfonamide] | 0.29 |
| COC[C@H](C)n1c(NS(=O)(=O)[C@@H](C)[C@H](C)c2ncc(Cl)cn2)nnc1-c1ccn(C)n1 [Example 533.0, (2S,3R)-3-(5-chloro-2-pyrimidinyl)-N-(4-((2S)-1-methoxy-2-propanyl)-5-(1-methyl-1H-pyrazol-3-yl)-4H-1,2,4-triazol-3-yl)-2-butanesulfonamide] | 110 |
| COc1cccc(OC)c1-n1c(NS(=O)(=O)[C@@H](C)[C@H](OC)c2ncc(C)cn2)nnc1-c1ncn(C)n1 [Example 204.0, (1R,2S)-N-(4′-(2,6-dimethoxyphenyl)-1-methyl-1H,4′H-3,3′-bi-1,2,4-triazol-5′-yl)-1-methoxy-1-(5-methyl-2-pyrimidinyl)-2-propanesulfonamide] | 52 |
| COc1cccc(OC)c1-n1c(NS(=O)(=O)[C@@H](C)[C@H](OC)c2ncc(C)cn2)nnc1-c1noc(C)c1C [Example 516.0] | 18 |
| COc1cccc(OC)c1-n1c(NS(=O)(=O)[C@@H](C)[C@H](O)c2ncc(C)cn2)nnc1-c1ccn(C(F)F)n1 [Example 218.0, (1R,2S)-N-(5-(1-(difluoromethyl)-1H-pyrazol-3-yl)-4-(2,6-dimethoxyphenyl)-4H-1,2,4-triazol-3-yl)-1-hydroxy-1-(5-methyl-2-pyrimidinyl)-2-propanesulfonamide] | 0.87 |
| COc1cccc(OC)c1-n1c(NS(=O)(=O)[C@H](C)[C@@H](C)c2ncc(C)cn2)nnc1-c1nc(C)cs1 (stereo in doubt) [Example 1.0, (2R,3 S)-N-(4-(2,6-dimethoxyphenyl)-5-(4-methylthiazol-2-yl)-4H-1,2,4-triazol-3-yl)-3-(5-methylpyrimidin-2-yl)butane-2-sulfonamide] | 0.13 |
| CC(C)O[C@@H](c1ncc(Cl)cn1)[C@H](C)S(=O)(=O)Nc1nnc(-c2ccn(C)n2)n1C(C)C [Example 537.0, (1S,2S)-1-(5-chloro-2-pyrimidinyl)-N-(5-(1-methyl-1H-pyrazol-3-yl)-4-(2-propanyl)-4H-1,2,4-triazol-3-yl)-1-(2-propanyloxy)-2-propanesulfonamide] | 27 |
| COc1cccc(OC)c1-n1c(NS(=O)(=O)[C@@H](C)[C@@H](OC(C)C)c2ncc(C)cn2)nnc1-c1cnn2c1CCC2 [Example 446.0, (1S,2S)-N-(5-(5,6-dihydro-4H-pyrrolo[1,2-b]pyrazol-3-yl)-4-(2,6-dimethoxyphenyl)-4H-1,2,4-triazol-3-yl)-1-isopropoxy-1-(5-methylpyrimidin-2-yl)propane-2-sulfonamide] | 0.74 |
| CCn1ccc(-c2nnc(NS(=O)(=O)[C@@H](C)[C@H](OC)c3ncc(Cl)cn3)n2-c2c(OC)cccc2OC)n1 [Example 393.0, (1R,2S)-1-(5-chloropyrimidin-2-yl)-N-(4-(2,6-dimethoxyphenyl)-5-(1-ethyl-1H-pyrazol-3-yl)-4H-1,2,4-triazol-3-yl)-1-methoxypropane-2-sulfonamide] | 0.47 |
| COc1cccc(OC)c1-n1c(NS(=O)(=O)[C@@H](C)[C@H](OC)c2ncc(Cl)cn2)nnc1-c1noc2ccccc12 [Example 83.0, (1R,2S)-N-(5-(benzo[d]isoxazol-3-yl)-4-(2,6-dimethoxyphenyl)-4H-1,2,4-triazol-3-yl)-1-(5-chloropyrimidin-2-yl)-1-methoxypropane-2-sulfonamide] | 1.9 |
| CO[C@H](c1ncc(Cl)cn1)[C@H](C)S(=O)(=O)Nc1nnc(-c2ccn(C)n2)n1-c1c(F)cccc1F [Example 229.0, (1R,2S)-1-(5-chloro-2-pyrimidinyl)-N-(4-(2,6-difluorophenyl)-5-(1-methyl-1H-pyrazol-3-yl)-4H-1,2,4-triazol-3-yl)-1-methoxy-2-propanesulfonamide] | 3.1 |
| COc1cccc(OC)c1-n1c(NS(=O)(=O)CCc2ccc(Cl)cc2)nnc1-c1ncco1 [Example 92.0, 2-(4-chlorophenyl)-N-(4-(2,6-dimethoxyphenyl)-5-(oxazol-2-yl)-4H-1,2,4-triazol-3-yl)ethanesulfonamide] | 71 |
